In patent publication US7449465B2, “Triazolopyrimidine derivatives as glycogen synthase kinase 3 inhibitors” (Janssen Pharmaceutica, N.V., priority 2003, dated 2008):

Assays:
GSK3β = GSK3β (Homo sapiens, UniProt P49841); test: GSK3beta assay (SPA, biotinylated phosphorylated CREB peptide, ATP-P33); assay type: biochemical; conditions: ranges of pIC50 (−log IC50 (M)); 1 μM ATP, room temperature, one hour; read-out: GSK3b pIC50 (converted)
Procedure: (§1) GSK3beta assays were performed at room temperature in a 100 μl reaction volume of 25 mM Tris (pH 7.4) containing 10 mM MgCl2.6H2O, 1 mM DTI, 0.1 mgiml BSA, 5% glycerol and containing 5.7 ng/μl GSK3β, 5 μM biotinylated phosphorylated CREB peptide, 1 μM ATP, 0.85 μCi/ml ATP-P^33 and a suitable amount of a test compound of formula (I). After one hour, the reaction was terminated by adding 70 μl of Stop mix (0.1 mM ATP, 5 mg/ml streptavidin coated PVT SPA bead pH 11.0). The beads to which the phosphorylated CREB peptide is attached were allowed to settle overnight and the radioactivity of the beads was counted in a microtiterplate scintillation counter and compared with the results obtained in a control experiment (without the presence of a test compound) in order to determine the percentage of GSK3β inhibition. The IC50 value, i.e. the concentration (M) of the test compound at which 50% of GSK3β is inhibited, was calculated from the dose response curve obtained by performing the above-described GSK3β assay in the presence of different amounts of the test compound.

GSK3alpha = GSK3alpha (Homo sapiens, UniProt P49840); test: GSK3alpha assay (same as the GSK3beta assay, 0.25 ng/μl GSK3alpha); assay type: biochemical; conditions: ranges of pIC50 (−log IC50 (M)), 1 μM ATP, read-out: GSK3a pIC50 (converted)
Procedure: as §1
The GSK3alpha assay was performed in the same way as described above for the GSK3beta assay except for the concentration of GSK3alpha which is 0.25 ng/μl.

Sequence of GSK3alpha (P49840 whole entry, species assumed): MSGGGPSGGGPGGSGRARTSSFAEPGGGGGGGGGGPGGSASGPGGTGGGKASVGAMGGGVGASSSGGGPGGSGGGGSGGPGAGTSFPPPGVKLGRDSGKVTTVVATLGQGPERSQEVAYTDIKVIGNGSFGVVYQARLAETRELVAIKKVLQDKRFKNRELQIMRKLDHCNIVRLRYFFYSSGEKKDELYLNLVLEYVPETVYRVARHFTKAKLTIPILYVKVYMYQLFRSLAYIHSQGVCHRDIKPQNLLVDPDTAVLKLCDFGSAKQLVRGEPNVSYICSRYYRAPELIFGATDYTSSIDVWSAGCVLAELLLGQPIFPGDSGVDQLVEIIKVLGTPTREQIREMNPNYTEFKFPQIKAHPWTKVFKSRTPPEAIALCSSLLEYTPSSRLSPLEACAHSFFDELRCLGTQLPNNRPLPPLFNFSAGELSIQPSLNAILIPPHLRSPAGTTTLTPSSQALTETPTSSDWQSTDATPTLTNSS
Sequence of GSK3β (P49841 whole entry, species assumed): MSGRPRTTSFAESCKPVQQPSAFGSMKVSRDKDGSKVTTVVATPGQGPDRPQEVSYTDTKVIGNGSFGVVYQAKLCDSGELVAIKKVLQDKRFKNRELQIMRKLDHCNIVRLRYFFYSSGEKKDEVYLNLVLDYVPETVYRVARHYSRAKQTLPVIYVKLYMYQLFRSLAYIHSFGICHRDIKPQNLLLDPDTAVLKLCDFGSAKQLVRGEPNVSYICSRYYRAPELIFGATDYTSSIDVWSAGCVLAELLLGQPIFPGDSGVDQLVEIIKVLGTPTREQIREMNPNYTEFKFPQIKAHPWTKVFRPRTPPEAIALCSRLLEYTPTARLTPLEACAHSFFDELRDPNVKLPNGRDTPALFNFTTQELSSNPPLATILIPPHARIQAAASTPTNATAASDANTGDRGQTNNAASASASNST

IC50 (GSK3β) [M] | IC50 (GSK3alpha) [M] | SMILES
< 1e-08 | < 1e-08 | CC(=O)NCc1cccc(-n2nnc3cnc(Nc4cccc(-c5nnnn5C)c4)nc32)c1 [Compound 116]
1e-08 to 1e-07 | < 1e-08 | Brc1cccc(-n2nnc3cnc(Nc4cccc(-c5ccn[nH]5)c4)nc32)c1 [Compound 44]
< 1e-08 | – | Fc1cccc(-n2nnc3cnc(Nc4cccc(-c5cncnc5)c4)nc32)c1 [Compound 31]
< 1e-08 | < 1e-08 | Cn1nnnc1-c1cccc(Nc2ncc3nnn(-c4cccc(F)c4)c3n2)c1 [Compound 28]
< 1e-08 | < 1e-08 | COc1cccc(-n2nnc3cnc(Nc4cccc(-c5nnn(C)n5)c4)nc32)c1 [Compound 18]
1e-08 to 1e-07 | < 1e-08 | Fc1cccc(-n2nnc3cnc(Nc4ccc(OCCN5CCOCC5)cc4)nc32)c1 [Compound 141]
1e-08 to 1e-07 | 1e-08 to 1e-07 | COCCOCc1cccc(-n2nnc3cnc(Nc4ccc(CN5CCN(C)CC5)cc4)nc32)c1 [Compound 109]
< 1e-08 | 1e-08 | CC(C)CC(=O)NCc1cccc(-n2nnc3cnc(Nc4cccc(-c5ccnc(N)n5)c4)nc32)c1 [Compound 121]
1e-08 to 1e-07 | 1e-08 to 1e-07 | COc1cccc(-n2nnc3cnc(Nc4cccc(N5CCN(C)CC5)c4)nc32)c1 [Compound 129]
< 1e-08 | < 1e-08 | Cn1nnnc1-c1cccc(Nc2ncc3nnn(-c4ccccc4)c3n2)c1 [Compound 74]
1e-08 to 1e-07 | – | Cn1cc(Br)c(-c2cccc(Nc3ncc4nnn(-c5cccc(Br)c5)c4n3)c2)n1 [Compound 45]
< 1e-08 | – | COc1ccc(-n2nnc3cnc(Nc4cccc(-c5nccn5C)c4)nc32)cc1 [Compound 3]
< 1e-08 | < 1e-08 | CN1CCN(c2cccc(Nc3ncc4nnn(-c5cccc(F)c5)c4n3)c2)CC1 [Compound 36]
1e-08 to 1e-07 | 1e-08 to 1e-07 | O=S(=O)(NCCNc1ncccn1)c1cccc(Nc2ncc3nnn(-c4cccc(F)c4)c3n2)c1 [Compound 136]
1e-08 | < 1e-08 | COCc1cccc(-n2nnc3cnc(Nc4ccc(OCCCN5CCN(C)CC5)cc4)nc32)c1 [Compound 106]
< 1e-08 | < 1e-08 | COc1cccc(-n2nnc3cnc(Nc4cccc(-c5ccnc(N)n5)c4)nc32)c1 [Compound 19]
1e-08 to 1e-07 | 1e-08 to 1e-07 | COCCOc1cccc(-n2nnc3cnc(Nc4ccc(CN5CCN(C)CC5)cc4)nc32)c1 [Compound 131]
> 1e-07 | < 1e-08 | OCCc1ccc(-n2nnc3cnc(Nc4ccc(N5CCOCC5)cc4)nc32)cc1 [Compound 85]
< 1e-08 | < 1e-08 | O=C(NCCN1CCOCC1)c1ccc(Nc2ncc3nnn(-c4cccc(CCO)c4)c3n2)cc1 [Compound 81]
1e-08 to 1e-07 | < 1e-08 | Cn1nnc(-c2ccc(Nc3ncc4nnn(-c5cccc(Br)c5)c4n3)cc2)n1 [Compound 53]
1e-08 to 1e-07 | < 1e-08 | COc1cccc(-n2nnc3cnc(Nc4cccc(-c5nnn[nH]5)c4)nc32)c1 [Compound 127]
< 1e-08 | < 1e-08 | N#CNc1nccc(-c2cccc(Nc3ncc4nnn(-c5cccc(F)c5)c4n3)c2)n1 [Compound 35]

IC50 (GSK3β) [M] | IC50 (GSK3alpha) [M] | SMILES
< 1e-08 | – | COCCOCc1cccc(-n2nnc3cnc(Nc4ccc(N5CCOCC5)cc4)nc32)c1 [Compound 107]
< 1e-08 | < 1e-08 | CN1CCN(Cc2ccc(Nc3ncc4nnn(-c5cccc(CCO)c5)c4n3)cc2)CC1 [Compound 78]
1e-08 to 1e-07 | > 1e-07 | Fc1cccc(-n2nnc3cnc(Nc4ccc(-n5cccn5)cc4)nc32)c1 [Compound 39]
< 1e-08 | < 1e-08 | OCCc1cccc(-n2nnc3cnc(Nc4ccc(Nc5ncccn5)cc4)nc32)c1 [Compound 84]
< 1e-08 | < 1e-08 | Fc1cccc(-n2nnc3cnc(Nc4cccc(-c5cnco5)c4)nc32)c1 [Compound 20]
1e-08 to 1e-07 | < 1e-08 | CN1CCN(Cc2ccc(Nc3ncc4nnn(-c5cccc(CC#N)c5)c4n3)cc2)CC1 [Compound 89]
1e-08 to 1e-07 | – | Cn1ccnc1-c1cccc(Nc2ncc3nnn(-c4ccc(CCO)cc4)c3n2)c1 [Compound 56]
< 1e-08 | < 1e-08 | CN1CCN(CCCOc2ccc(Nc3ncc4nnn(-c5cccc(CCO)c5)c4n3)cc2)CC1 [Compound 83]
< 1e-08 | < 1e-08 | COc1cccc(-n2nnc3cnc(Nc4cccc(-c5nnnn5C)c4)nc32)c1 [Compound 128]
1e-08 to 1e-07 | < 1e-08 | Fc1cccc(-n2nnc3cnc(Nc4ccc(OCCCN5CCOCC5)cc4)nc32)c1 [Compound 144]
1e-08 to 1e-07 | – | Cn1ccnc1-c1cccc(Nc2ncc3nnn(-c4ccc(Br)cc4)c3n2)c1 [Compound 49]
1e-08 to 1e-07 | 1e-08 to 1e-07 | COCc1cccc(-n2nnc3cnc(Nc4ccc(CN5CCC(O)CC5)cc4)nc32)c1 [Compound 102]
< 1e-08 | < 1e-08 | COCC(=O)NCc1cccc(-n2nnc3cnc(Nc4ccc(-c5cnco5)cc4)nc32)c1 [Compound 123]
< 1e-08 | < 1e-08 | COCc1cccc(-n2nnc3cnc(Nc4cccc(-c5cnco5)c4)nc32)c1 [Compound 98]
< 1e-08 | < 1e-08 | Cn1nccc1-c1cccc(Nc2ncc3nnn(-c4cccc(F)c4)c3n2)c1 [Compound 23]
< 1e-08 | – | Cn1ccnc1-c1cccc(Nc2ncc3nnn(-c4ccc5c(c4)CCC5)c3n2)c1 [Compound 65]
< 1e-08 | < 1e-08 | Brc1cccc(-n2nnc3cnc(Nc4cccc(C5=NCNC5)c4)nc32)c1 [Compound 43]
1e-08 to 1e-07 | 1e-08 to 1e-07 | Cn1cc(Br)c(-c2cccc(Nc3ncc4nnn(-c5cccc(F)c5)c4n3)c2)n1 [Compound 25]
1e-08 to 1e-07 | – | Brc1cccc(-n2nnc3cnc(Nc4ccc(-n5cncn5)cc4)nc32)c1 [Compound 51]
< 1e-08 | < 1e-08 | Fc1cccc(-n2nnc3cnc(Nc4ccc(-n5cncn5)cc4)nc32)c1 [Compound 40]
< 1e-08 | < 1e-08 | OCCc1cccc(-n2nnc3cnc(Nc4ccc(CN5CCC(O)CC5)cc4)nc32)c1 [Compound 79]
1e-08 to 1e-07 | < 1e-08 | O=c1[nH]nc(-c2cccc(Nc3ncc4nnn(-c5cccc(Br)c5)c4n3)c2)[nH]1 [Compound 46]

IC50 (GSK3β) [M] | IC50 (GSK3alpha) [M] | SMILES
1e-08 to 1e-07 | 1e-08 to 1e-07 | c1ccc(-n2nnc3cnc(Nc4ccc(N5CCOCC5)cc4)nc32)cc1 [Compound 11]
– | 1e-08 to 1e-07 | O=C(O)c1cc(Nc2ncc3nnn(-c4cccc(F)c4)c3n2)ccc1N1CCOCC1 [Compound 150]
< 1e-08 | < 1e-08 | NS(=O)(=O)c1cccc(-n2nnc3cnc(Nc4cccc(-c5cnco5)c4)nc32)c1 [Compound 145]
< 1e-08 | < 1e-08 | CNc1nccc(-c2cccc(Nc3ncc4nnn(-c5cccc(F)c5)c4n3)c2)n1 [Compound 34]
< 1e-08 | < 1e-08 | Brc1cccc(-n2nnc3cnc(Nc4cccc(-c5cncnc5)c4)nc32)c1 [Compound 47]
< 1e-08 | < 1e-08 | N#CCc1cccc(-n2nnc3cnc(Nc4cccc(-c5cnco5)c4)nc32)c1 [Compound 86]
< 1e-08 | < 1e-08 | Cn1nnnc1-c1cccc(Nc2ncc3nnn(-c4cccc(CCO)c4)c3n2)c1 [Compound 76]
< 1e-08 | < 1e-08 | Nc1nccc(-c2cccc(Nc3ncc4nnn(-c5cccc(F)c5)c4n3)c2)n1 [Compound 33]
1e-08 to 1e-07 | 1e-08 to 1e-07 | Fc1cccc(-n2nnc3cnc(Nc4ccc(-c5cnco5)cc4)nc32)c1 [Compound 38]
1e-08 to 1e-07 | – | Cn1ccnc1-c1cccc(Nc2ncc3nnn(-c4ccc5cn[nH]c5c4)c3n2)c1 [Compound 148]
– | 1e-08 to 1e-07 | Nc1nccc(-c2cccc(Nc3ncc4nnn(-c5cccc(CNC(=O)C6CC6)c5)c4n3)c2)n1 [Compound 119]
1e-08 to 1e-07 | – | Cc1nccc(-c2cccc(Nc3ncc4nnn(-c5cccc(Br)c5)c4n3)c2)n1 [Compound 48]
< 1e-08 | – | COc1cc(-n2nnc3cnc(Nc4cccc(-c5nccn5C)c4)nc32)cc(C(F)(F)F)c1 [Compound 63]
< 1e-08 | – | COc1cccc(-n2nnc3cnc(Nc4cccc(-c5nccn5C)c4)nc32)c1 [Compound 17]
> 1e-07 | – | Fc1cccc(-n2nnc3cnc(Nc4ccc(-n5cccc5)cc4)nc32)c1 [Compound 37]
< 1e-08 | – | Cc1cccc(-n2nnc3cnc(Nc4cccc(-c5nccn5C)c4)nc32)c1 [Compound 14]
1e-08 to 1e-07 | – | COCCOc1cccc(-n2nnc3cnc(Nc4ccc(OCCN5CCN(C)CC5)cc4)nc32)c1 [Compound 153]
> 1e-07 | – | CC(=O)N(C)c1ccc(-n2nnc3cnc(Nc4cccc(-c5nccn5C)c4)nc32)cc1 [Compound 57]
1e-08 to 1e-07 | – | Cc1ccc(-n2nnc3cnc(Nc4cccc(-c5nccn5C)c4)nc32)cc1Cl [Compound 60]
1e-08 to 1e-07 | – | CSc1ccc(-n2nnc3cnc(Nc4cccc(-c5nccn5C)c4)nc32)cc1 [Compound 55]
1e-08 to 1e-07 | – | COc1ccc(-n2nnc3cnc(Nc4cccc(-c5nccn5C)c4)nc32)cc1F [Compound 61]
< 1e-08 | – | Cn1ccnc1-c1cccc(Nc2ncc3nnn(-c4ccc5c(c4)OCCO5)c3n2)c1 [Compound 66]
